Source: patent publication US7122558B2 (priority 2000, dated 2006)
Structures can show the parent of a compound that is named as a salt.

Target: T1, human muscarinic receptors M3 (Homo sapiens, UniProt P20309)
T1 construct: expressed in transfected cells; host or cells: CHO-K1 (chinese hamster ovary-K1), stably transfected; membrane preparations
Assay: biochemical
Type: binding
Conditions: for inhibition at 0.1 µM: read-out: % INHIBITION concentration: 1.00E−07 M; for inhibition at 0.01 µM: read-out: % INHIBITION concentration: 1.00E−08 M

T1 sequence (P20309 whole entry): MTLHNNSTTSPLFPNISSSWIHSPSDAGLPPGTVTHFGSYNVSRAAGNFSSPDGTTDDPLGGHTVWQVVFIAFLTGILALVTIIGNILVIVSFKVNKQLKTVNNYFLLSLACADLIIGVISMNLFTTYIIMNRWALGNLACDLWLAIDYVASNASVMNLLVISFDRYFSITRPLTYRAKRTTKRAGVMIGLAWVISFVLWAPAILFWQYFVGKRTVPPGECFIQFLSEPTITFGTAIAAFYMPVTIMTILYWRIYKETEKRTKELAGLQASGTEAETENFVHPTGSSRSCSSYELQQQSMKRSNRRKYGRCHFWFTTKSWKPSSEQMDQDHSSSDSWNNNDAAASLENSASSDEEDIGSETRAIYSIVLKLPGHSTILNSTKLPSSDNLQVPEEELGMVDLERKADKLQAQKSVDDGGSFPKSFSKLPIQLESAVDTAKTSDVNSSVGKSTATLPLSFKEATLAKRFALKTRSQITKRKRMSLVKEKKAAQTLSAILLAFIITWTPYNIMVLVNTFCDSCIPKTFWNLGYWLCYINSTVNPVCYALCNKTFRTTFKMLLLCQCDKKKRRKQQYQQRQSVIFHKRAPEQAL

SMILES: O=C(O[C@H]1C[N+]2(CCCc3ccccc3)CCC1CC2)[C@](O)(c1ccco1)C1CCCCC1 [Example 81, (3R)-3-[(2R)-2-Cyclohexyl-2-fur-2-yl-2-hydroxyacetoxy]-1-(3-phenylpropyl)-1-azoniabicyclo[2.2.2]octane trifluoroacetate]
- inhibition at 0.1 µM: 70.1%
- inhibition at 0.01 µM: 45.4%

SMILES: O=C(O[C@H]1C[N+]2(CCCOc3ccccc3)CCC1CC2)[C@@](O)(c1cccs1)C1CCCC1 [Example 53, (3R)-3-[(2R)-2-cyclopentyl-2-hydroxy-2-thien-2-ylacetoxy]-1-(3-phenoxypropyl)-1-azoniabicyclo[2.2.2]octane bromide]
- inhibition at 0.1 µM: 81.5%
- inhibition at 0.01 µM: 58%

SMILES: O=C(O[C@H]1C[N+]2(CCCOc3ccccc3Cl)CCC1CC2)[C@](O)(c1cccs1)C1CCCC1 [Example 40, 1-[3-(2-Chlorophenoxy)-propyl]-(3R)-3-[(2S)-2-cyclopentyl-2-hydroxy-2-thien-2-ylacetoxy]-1-azoniabicyclo[2.2.2]octane trifluoroacetate]
- inhibition at 0.1 µM: 86.9%
- inhibition at 0.01 µM: 72.7%

SMILES: O=C(O[C@H]1C[N+]2(CCCc3cccs3)CCC1CC2)[C@@](O)(c1cccs1)C1CCCC1 [Example 54, (3R)-3-[(2R)-2-Cyclopentyl-2-hydroxy-2-thien-2-ylacetoxy]-1-(3-thien-2-ylpropyl)-1-azoniabicyclo[2.2.2]octane trifluoroacetate]
- inhibition at 0.1 µM: 72.5%
- inhibition at 0.01 µM: 44.1%

SMILES: C=CCC(O)(C(=O)O[C@H]1C[N+]2(CCCOc3ccccc3)CCC1CC2)c1cccs1 (stereo partly drawn) [Example 13, (3R)-3-(2-Hydroxy-2-thien-2-ylpent-4-enoyloxy)-1-(3-phenoxypropyl)-1-azoniabicyclo[2.2.2]octane bromide]
- inhibition at 0.1 µM: 76%
- inhibition at 0.01 µM: 36%

SMILES: O=C(O[C@H]1C[N+]2(CCCOc3ccccc3)CCC1CC2)[C@](O)(c1ccco1)C1CCCC1 [Example 64, (3R)-3-[(2R)-2-Cyclopentyl-2-fur-2-yl-2-hydroxyacetoxy]-1-(3-phenoxypropyl)-1-azoniabicyclo[2.2.2]octane trifluoroacetate]
- inhibition at 0.1 µM: 78.6%
- inhibition at 0.01 µM: 64.5%

SMILES: CCCCCC(O)(C(=O)O[C@H]1C[N+]2(CCCOc3ccccc3)CCC1CC2)c1cccs1 (stereo partly drawn) [Example 16, (3R)-3-(2-Hydroxy-2-thien-2-ylheptanoyloxy)-1-(3-phenoxypropyl)-1-azoniabicyclo[2.2.2]octane trifluoroacetate]
- inhibition at 0.1 µM: 74.2%
- inhibition at 0.01 µM: 36.3%

SMILES: N#Cc1cccc(OCCC[N+]23CCC(CC2)[C@@H](OC(=O)[C@](O)(c2cccs2)C2CCCC2)C3)c1 [Example 34, 1-[3-(3-Cyanophenoxy)propyl]-(3R)-3-[(2S)-2-cyclopentyl-2-hydroxy-2-thien-2-ylacetoxy]-1-azoniabicyclo[2.2.2]octane trifluoroacetate]
- inhibition at 0.1 µM: 85.3%
- inhibition at 0.01 µM: 68.3%

SMILES: O=C(O[C@H]1C[N+]2(CCCc3cccs3)CCC1CC2)[C@](O)(c1ccco1)C1CCCC1.O=C([O-])C(F)(F)F [Example 65, (3R)-3-[(2R)-2-Cyclopentyl-2-fur-2-yl-2-hygroxyacetoxy]-1-(3-thien-2-ylpropyl)-1-azoniabicyclo[2.2.2]octane trifluoroacetate]
- % INHIBITION concentration: 1.00E−08 M (0.01 µM): 66.0%
- % INHIBITION concentration: 1.00E−07 M (0.1 µM): 79.8%

SMILES: O=C(O[C@H]1C[N+]2(CCc3ccccc3)CCC1CC2)[C@@](O)(c1cccs1)C1CCCCC1 [Example 92, (3R)-3-[(2R)-2-Cyclohexyl-2-hydroxy-2-thien-2-ylacetoxy]-1-phenethyl-1-azoniabicyclo[2.2.2]octane trifluoroacetate]
- inhibition at 0.1 µM: 69.4%
- inhibition at 0.01 µM: 49.2%

SMILES: O=C(CCC[N+]12CCC(CC1)[C@@H](OC(=O)[C@](O)(c1cccs1)C1CCCC1)C2)c1ccccc1 [Example 38, (3R)-3-[(2S)-2-Cyclopentyl-2-hydroxy-2-thien-2-ylacetoxy]-1-(4-oxo-4-phenylbutyl)-1-azoniabicyclo[2.2.2]octane trifluoroacetate]
- inhibition at 0.1 µM: 86.3%
- inhibition at 0.01 µM: 57.7%

SMILES: O=C(O[C@H]1C[N+]2(CCCOc3ccc(F)cc3F)CCC1CC2)[C@](O)(c1cccs1)C1CCCC1 [Example 43, (3R)-3-[(2S)-2-Cyclopentyl-2-hydroxy-2-thien-2-ylacetoxy]-1-[3-(2,4-difluorophenoxy)propyl]-1-azoniabicyclo[2.2.2]octane trifluoroacetate]
- inhibition at 0.1 µM: 83.4%
- inhibition at 0.01 µM: 58.7%

SMILES: O=C(O[C@H]1C[N+]2(CCCc3ccccc3)CCC1CC2)[C@](O)(c1ccco1)C1CCCC1 [Example 67, (3R)-3-[(2R)-2-Cyclopentyl-2-fur-2-yl-2-hydroxyacetoxy]-1-(3-phenylpropyl)-1-azoniabicyclo[2.2.2]octane trifluoroacetate]
- inhibition at 0.1 µM: 75.1%
- inhibition at 0.01 µM: 52.5%

SMILES: O=C(O[C@H]1C[N+]2(CCc3ccccc3)CCC1CC2)[C@](O)(c1ccco1)C1CCCCC1 [Example 80, (3R)-3-[(2R)-2-Cyclohexyl-2-fur-2-yl-2-hydroxyacetoxy]-1-phenethyl-1-azoniabicyclo[2.2.2]octane trifluoroacetate]
- inhibition at 0.1 µM: 72.4%
- inhibition at 0.01 µM: 55.8%

SMILES: CC(C)[N+]1(C)[C@@H]2CC[C@H]1C[C@@H](OC(=O)C(CO)c1ccccc1)C2 (stereo partly drawn) [Ipratropium bromide, reference compound]
- inhibition at 0.1 µM: 93.8%
- inhibition at 0.01 µM: 67.2%

SMILES: O=C(O[C@H]1C[N+]2(CCc3ccccc3)CCC1CC2)[C@](O)(c1ccccc1)C1CCCCC1 [Example 70, (3R)-3-[(2R)-2-Cyclohexyl-2-hydroxy-2-phenylacetoxy]-1-phenethyl-1-azoniabicyclo[2.2.2]octane trifluoroacetate]
- inhibition at 0.1 µM: 71.2%
- inhibition at 0.01 µM: 50%

SMILES: O=C(O[C@H]1C[N+]2(CCCc3cccs3)CCC1CC2)[C@](O)(c1ccccc1)C1CCCCC1 [Example 69, (3R)-3-[(2R)-2-Cyclohexyl-2-hydroxy-2-phenylacetoxy]-1-(3-thien-2-ylpropyl)-1-azoniabicyclo[2.2.2]octane trifluoroacetate]
- inhibition at 0.1 µM: 70.8%
- inhibition at 0.01 µM: 43.9%

SMILES: O=C(O[C@H]1C[N+]2(CCCOc3ccccc3)CCC1CC2)[C@](O)(c1cccs1)C1CCCCC1 [Example 88, (3R)-3-[(2S)-2-Cyclohexyl-2-hydroxy-2-thien-2-ylacetoxy]-1-(3-phenoxypropyl)-1-azoniabicyclo[2.2.2]octane trifluoroacetate]
- inhibition at 0.1 µM: 65.5%
- inhibition at 0.01 µM: 35.7%
